Measured values published in patent US9661854B2, “Molecules having pesticidal utility, and intermediates, compositions, and processes, related thereto” (Dow AgroSciences LLC, priority 2015, dated 2017).

Assays:
Assay type in all cases: in vivo
[1] = test system: Cabbage Looper (Trichoplusia ni, TRIPNI); assay: Bioassay on Cabbage Looper (CL), 128-well diet tray assay; details: 168 h, 50 μg/cm^2 on artificial diet, second instar larvae, 25° C., five to seven days, average of eight wells, read-out: CL % Control (or Mortality) rating
Procedure, shortened: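 Second-instar larvae (one to five per well) placed on artificial diet treated with 50 μg/cm^2 test molecule in 90:10 acetone-water, dried; eight wells per molecule. Held at 25° C., 14:10 light-dark, for five to seven days. Percent mortality scored per well and averaged over the eight wells.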

[2] = test system: Yellow Fever Mosquito (Aedes aegypti, AEDSAE); details: about 1 day-old larvae, master plate 4000 ppm solution diluted, room temperature, scored after 3 days
Experimental: Example B: Bioassays on Yellow Fever Mosquito (Aedes aegypti, AEDSAE (“YFM”)
Certain molecules disclosed in this document were tested against YFM using procedures described in the following paragraph. In the reporting of the results, the “YFM Rating Table” was used (See Table Section).
Master plates containing 400 μg of a molecule dissolved in 100 μL of dimethyl sulfoxide (DMSO) (equivalent to a 4000 ppm solution) are used. A master plate of assembled molecules contains 15 μL per well. To this plate, 135 μL of a 90:10 water/acetone mixture is added to each well. A robot (Biomek® NXP Laboratory Automation Workstation) is programmed to dispense 15 μL aspirations from the master plate into an empty 96-well shallow plate (“daughter” plate). There are 6 reps (“daughter” plates) created per master. The created “daughter” plates are then immediately infested with YFM larvae.
The day before plates are to be treated, mosquito eggs are placed in Millipore water containing liver powder to begin hatching (4 g into 400 mL). After the “daughter” plates are created using the robot, they are infested with 220 μL of the liver powder/larval mosquito mixture (about 1 day-old larvae). After plates are infested with mosquito larvae, a non-evaporative lid is used to cover the plate to reduce drying. Plates are held at room temperature for 3 days prior to grading. After 3 days, each well is observed and scored based on mortality. The results are indicated in the table entitled “Table ABC: Biological Results” (See Table Section).

[3] = test system: Beet Armyworm (Spodoptera exigua, LAPHEG); assay: Bioassay on Beet Armyworm (BAW), 128-well diet tray assay; details: 168 h, 50 μg/cm^2 on artificial diet, second instar larvae, 25° C., five to seven days, average of eight wells, read-out: BAW % Control (or Mortality) rating
Procedure, shortened: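 Second-instar larvae, one to five per well, fed artificial diet surface-treated with 50 μg/cm^2 test molecule in 90:10 acetone-water, dried before infestation; eight wells per molecule. Held at 25 °C, 14:10 light-dark for five to seven days; percent mortality averaged over wells.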

With Cc1ccc(OC(C)(C)C)c(N2C(=O)CS/C2=N\C(=O)Nc2ccc(CCc3ncn(-c4ccc(OC(F)(F)F)cc4)n3)cc2)c1 [F14, (Z)-1-(3-(2-(tert-Butoxy)-5-methylphenyl)-4-oxothiazolidin-2-ylidene)-3-(4-(2-(1-(4-(trifluoromethoxy)phenyl)-1H-1,2,4-triazol-3-yl)ethyl)phenyl)urea] the mortality at 50 µg/cm2 [1] was 50 to 100%, the “YFM % Control (or Mortality) rating” value [2] was “A (80-100)” and the mortality at 50 µg/cm2 [3] was 50 to 100%.
With Cc1ccc(C(C)C)c(N2C(=O)CS/C2=N\C(=O)Nc2ccc(CC(C)c3ncn(-c4ccc(OC(F)(F)F)cc4)n3)cc2)c1 (stereo not drawn) [F15, (Z)-1-(3-(2-Isopropyl-5-methylphenyl)-4-oxothiazolidin-2-ylidene)-3-(4-(2-(1-(4-(trifluoromethoxy)phenyl)-1H-1,2,4-triazol-3-yl)propyl)phenyl)urea] the mortality at 50 µg/cm2 [1] was 50 to 100%, the “YFM % Control (or Mortality) rating” value [2] was “A (80-100)” and the mortality at 50 µg/cm2 [3] was 50 to 100%.
For Cc1ccc(C(C)C)c(N2C(=O)CS/C2=N\C(=O)Nc2ccc(CCc3ncn(-c4ccc(OC(F)(F)F)cc4)n3)c(F)c2)c1 [F23, (Z)-1-(3-Fluoro-4-(2-(1-(4-(trifluoromethoxy)phenyl)-1H-1,2,4-triazol-3-yl)ethyl)phenyl)-3-(3-(2-isopropyl-5-methylphenyl)-4-oxothiazolidin-2-ylidene)urea], the mortality at 50 µg/cm2 [1] was 50 to 100%, the “YFM % Control (or Mortality) rating” value [2] was “A (80-100)” and the mortality at 50 µg/cm2 [3] was 50 to 100%.
With CCCc1ccc(C)cc1N1C(=O)CS/C1=N\C(=O)Nc1ccc(CCc2ncn(-c3ccc(OC(F)(F)F)cc3)n2)cc1F [F26, (Z)-1-(2-Fluoro-4-(2-(1-(4-(trifluoromethoxy)phenyl)-1H-1,2,4-triazol-3-yl)ethyl)phenyl)-3-(3-(5-methyl-2-propylphenyl)-4-oxothiazolidin-2-ylidene)urea] the mortality at 50 µg/cm2 [1] was 50 to 100%, the “YFM % Control (or Mortality) rating” value [2] was “A (80-100)” and the mortality at 50 µg/cm2 [3] was 50 to 100%.
In the case of Cc1ccc(C(C)C)c(N2C(=O)CS/C2=N\C(=O)Nc2ccc(/C=C/c3ncn(-c4ccc(OC(F)(F)F)cc4)n3)cc2)c1 [F38, 1-((Z)-3-(2-isopropyl-5-methylphenyl)-4-oxothiazolidin-2-ylidene)-3-(4-((E)-2-(1-(4-(trifluoromethoxy)phenyl)-1H-1,2,4-triazol-3-yl)vinyl)phenyl)urea], the mortality at 50 µg/cm2 [1] is reported as 50 to 100%, the “YFM % Control (or Mortality) rating” value [2] is reported as “A (80-100)” and the mortality at 50 µg/cm2 [3] is reported as 50 to 100%.
In the case of CCC(C)Oc1ccc(C)cc1N1C(=O)CS/C1=N\C(=O)Nc1ccc(/C=C/c2ncn(-c3ccc(OC(F)(F)F)cc3)n2)cc1F (stereo not drawn) [F60, 1-((Z)-3-(2-(sec-Butoxy)-5-methylphenyl)-4-oxothiazolidin-2-ylidene)-3-(2-fluoro-4-((E)-2-(1-(4-(trifluoromethoxy)phenyl)-1H-1,2,4-triazol-3-yl)vinyl)phenyl)urea], the mortality at 50 µg/cm2 [1] is reported as 50 to 100%, the “YFM % Control (or Mortality) rating” value [2] is reported as “A (80-100)” and the mortality at 50 µg/cm2 [3] is reported as 50 to 100%.
Work on Cc1ccc(C(C)C)c(N2C(=O)CS/C2=N\C(=O)Nc2ccc(/C=C/c3ncn(-c4ccc(OC(F)(F)F)cn4)n3)cn2)c1 [F71, 1-((Z)-3-(2-isopropyl-5-methylphenyl)-4-oxothiazolidin-2-ylidene)-3-(5-((E)-2-(1-(5-(trifluoromethoxy)pyridin-2-yl)-1H-1,2,4-triazol-3-yl)vinyl)pyridin-2-yl)urea] yielded a mortality at 50 µg/cm2 [1] of 50 to 100% and a mortality at 50 µg/cm2 [3] of 50 to 100%.
In the case of Cc1ccc(C(C)C)c(N2C(=O)CS/C2=N\C(=O)Nc2ccc(/C=C/c3ncn(-c4ncc(C(F)(F)F)cc4Cl)n3)cc2)c1 [F72, 1-(4-((E)-2-(1-(3-chloro-5-(trifluoromethyl)pyridin-2-yl)-1H-1,2,4-triazol-3-yl)vinyl)phenyl)-3-((Z)-3-(2-isopropyl-5-methylphenyl)-4-oxothiazolidin-2-ylidene)urea], the mortality at 50 µg/cm2 [1] is reported as 50 to 100% and the mortality at 50 µg/cm2 [3] is reported as 50 to 100%.
With Cc1ccc(C(C)C)c(N2C(=O)CS/C2=N\C(=O)Nc2ccc(C3CC3c3ncn(-c4ccc(OC(F)(F)F)cc4)n3)cc2)c1 (stereo not drawn) [F73, (Z)-1-(3-(2-Isopropyl-5-methylphenyl)-4-oxothiazolidin-2-ylidene)-3-(4-(2-(1-(4-(trifluoromethoxy)phenyl)-1H-1,2,4-triazol-3-yl)cyclopropyl)phenyl)urea] the mortality at 50 µg/cm2 [1] was 50 to 100% and the mortality at 50 µg/cm2 [3] was 50 to 100%.
Cc1ccc(C(C)C)c(N2C(=O)CS/C2=N\C(=O)Nc2ccc(CCc3ncn(-c4ccc(OC(F)(F)F)cn4)n3)cc2)c1 [F74, (Z)-1-(3-(2-Isopropyl-5-methylphenyl)-4-oxothiazolidin-2-ylidene)-3-(4-(2-(1-(5-(trifluoromethoxy)pyridin-2-yl)-1H-1,2,4-triazol-3-yl)ethyl)phenyl)urea] was tested, and the mortality at 50 µg/cm2 [1] was 50 to 100% and the mortality at 50 µg/cm2 [3] was 50 to 100%.
With O=C(/N=C1\SCC(=O)N1c1cccnc1)Nc1ccc(CCc2ncn(-c3ccc(OC(F)(F)F)cc3)n2)cc1 [F75, (Z)-1-(4-Oxo-3-(pyridin-3-yl)thiazolidin-2-ylidene)-3-(4-(2-(1-(4-(trifluoromethoxy)phenyl)-1H-1,2,4-triazol-3-yl)ethyl)phenyl)urea] the mortality at 50 µg/cm2 [1] was 50 to 100% and the mortality at 50 µg/cm2 [3] was 50 to 100%.
For CC(C)c1ccccc1N1C(=O)CS/C1=N\C(=O)Nc1ccc(CCc2ncn(-c3ccc(C(F)(F)F)cc3C#N)n2)cc1 [F76, (Z)-1-(4-(2-(1-(2-cyano-4-(trifluoromethyl)phenyl)-1H-1,2,4-triazol-3-yl)ethyl)phenyl)-3-(3-(2-isopropylphenyl)-4-oxothiazolidin-2-ylidene)urea], the mortality at 50 µg/cm2 [1] was 50 to 100%, the “YFM % Control (or Mortality) rating” value [2] was “A (80-100)” and the mortality at 50 µg/cm2 [3] was 50 to 100%.
With CC(C)c1ccccc1N1C(=O)CS/C1=N\C(=O)Nc1ccc(CCc2ncn(-c3ccc(Br)cc3)n2)cc1 [F77, (Z)-1-(4-(2-(1-(4-Bromophenyl)-1H-1,2,4-triazol-3-yl)ethyl)phenyl)-3-(3-(2-isopropylphenyl)-4-oxothiazolidin-2-ylidene)urea] the mortality at 50 µg/cm2 [1] was 50 to 100%, the “YFM % Control (or Mortality) rating” value [2] was “A (80-100)” and the mortality at 50 µg/cm2 [3] was 50 to 100%.
With O=C(/N=C1\SCC(=O)N1C1CCCCC1)Nc1ccc(/C=C/c2ncn(-c3ccc(OC(F)(F)F)cc3)n2)cc1F [F78, 1-((Z)-3-Cyclohexyl-4-oxothiazolidin-2-ylidene)-3-(2-fluoro-4-((E)-2-(1-(4-(trifluoromethoxy)phenyl)-1H-1,2,4-triazol-3-yl)vinyl)phenyl)urea] the mortality at 50 µg/cm2 [1] was 50 to 100% and the mortality at 50 µg/cm2 [3] was 50 to 100%.
